The text below walks through data of patent publication US11453690B2, “Receptor inhibitor, pharmaceutical composition comprising same, and use thereof” (BEIJING TIDE PHARMACEUTICAL CO., LTD., priority 2018, dated 2022).

The target in the experiment is AT2 Receptor (AT2R) (Homo sapiens (Human), UniProt P50052). Description: Measurement of inhibitory activity on AT2 receptor (Tag-lite HTRF, Tb-labeled AT2R cells, angiotensin receptor red agonist). The format is binding. The note with it: 1 h room temperature.
Sequence of AT2 Receptor (AT2R) (P50052 whole entry): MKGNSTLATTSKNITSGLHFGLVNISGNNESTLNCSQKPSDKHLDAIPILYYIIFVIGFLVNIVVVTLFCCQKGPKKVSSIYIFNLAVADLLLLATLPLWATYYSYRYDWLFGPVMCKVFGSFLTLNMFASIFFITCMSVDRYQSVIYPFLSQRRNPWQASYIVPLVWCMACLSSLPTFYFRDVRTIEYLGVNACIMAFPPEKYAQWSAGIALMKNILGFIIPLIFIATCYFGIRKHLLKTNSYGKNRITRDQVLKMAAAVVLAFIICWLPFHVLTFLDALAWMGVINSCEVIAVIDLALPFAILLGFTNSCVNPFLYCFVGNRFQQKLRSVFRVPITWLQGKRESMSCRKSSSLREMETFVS
Take `O=C(O)[C@@H]1[C@H]2CC[C@@H](CN1C(=O)N(c1ccccc1)c1ccccc1)N2C(=O)N1CCC[C@H]1c1cc(F)ccc1F` [Compound C142, (1R,2S,5S)-8-((S)-2-(2,5-difluorophenyl)pyrrolidine-1-carbonyl)-3-(diphenylcarbamoyl)-3,8-diazabicyclo [3.2.1]octane-2-carboxylic acid]: the IC50 came to 654 nM.

In the case of `CCN(Cc1ccc(C)s1)C(=O)N1[C@H]2CC[C@@H]1[C@@H](C(=O)O)N(C(=O)C(c1ccccc1)c1ccccc1)C2` [Compound C278, (1R,2S,5S)-3-(2,2-diphenylacetyl)-8-(ethyl((5-methylthiophen-2-yl)methyl)carbamoyl)-3,8-diazabicyclo [3.2.1]octane-2-carboxylic acid], the IC50 was 10.6 nM.

In turn, `CN(Cc1ccc2ncccc2c1)C(=O)N1[C@H]2CC[C@@H]1[C@@H](C(=O)O)N(C(=O)N(c1ccccc1)c1ccccc1)C2` [Compound C266, (1R,2S,5S)-3-(diphenylcarbamoyl)-8-(methyl (quinoline-6-ylmethyl)carbamoyl)-3,8-diazabicyclo [3.2.1]octane-2-carboxylic acid] returned an IC50 of 1.63 nM.

On to `CN(Cc1ccccc1)C(=O)N1C[C@@H]2CC[C@H]([C@H]1C(=O)O)N2C(=O)C(c1ccccc1)c1ccccc1` [Compound C62, (1R,2S,5S)-3-(benzyl(methyl)carbamoyl)-8-(2,2-diphenylacetyl)-3,8-diazabicyclo[3.2.1]octane-2-carboxylic acid], for which the IC50 stood at 104 nM.

Compound `O=C(O)[C@@H]1[C@@H]2CC[C@@H](CC2OCc2cccc(Cl)c2)N1C(=O)C(c1ccccc1)c1ccccc1` (stereo partly drawn) [Compound C291, (1S,3S,4S)-5-((3-chloro-benzyl)oxy)-2-(2,2-diphenylacetyl)-2-azabicyclo [2.2.2]octane-3-carboxylic acid] registered an IC50 of 765 nM.

Consider `Cc1cc(CN(C)C(=O)N2[C@H]3CC[C@@H]2[C@@H](C(=O)O)N(C(=O)C(c2ccccc2)c2ccccc2)C3)cs1` [Compound C277, (1R,2S,5S)-3-(2,2-diphenylacetyl)-8-(methyl((5-methylthiophen-3-yl)methyl)carbamoyl)-3,8-diazabicyclo [3.2.1]octane-2-carboxylic acid], for which the IC50 was 10.5 nM. Compared with the last compound, the IC50 is about 73-fold lower.

For `CC(Cc1ccccc1)C(=O)N1[C@H]2CC[C@@H]1[C@@H](C(=O)O)N(C(=O)C(c1ccccc1)c1ccccc1)C2` (stereo partly drawn) [Compound C230, (1R,2S,5S)-3-(2,2-diphenylacetyl)-8-(2-methyl-3-phenylpropionyl)-3,8-diazabicyclo [3.2.1]octane-2-carboxylic acid], the IC50 worked out at 50.2 nM. Against the preceding compound, the IC50 is about 4.8-fold higher.

`CCN(Cc1ccoc1)C(=O)N1[C@H]2CC[C@@H]1[C@@H](C(=O)O)N(C(=O)N(c1ccccc1)c1ccccc1)C2` [Compound C260, (1R,2S,5S)-3-(diphenylcarbamoyl)-8-(ethyl (furan-3-ylmethyl)carbamoyl)-3,8-diazabicyclo [3.2.1]octane-2-carboxylic acid] came in with an IC50 of 29.6 nM.

The compound `CN(CC1CCCCC1)C(=O)N1[C@H]2CC[C@@H]1[C@@H](C(=O)O)N(C(=O)N(c1ccccc1)c1ccccc1)C2` [Compound C147, (1R,2S,5S)-8-((cyclohexylmethyl) (methyl)carbamoyl)-3-(diphenylcarbamoyl)-3,8-diazabicyclo [3.2.1]octane-2-carboxylic acid] had a 50% inhibitory concentration (IC50) of 111 nM.

In turn, `CC(NC(=O)N1[C@H]2CC[C@@H]1[C@@H](C(=O)O)N(C(=O)N(c1ccccc1)c1ccccc1)C2)c1ccccc1` (stereo partly drawn) [Compound C117, (1R,2S,5S)-3-(diphenylcarbamoyl)-8-((1-phenylethyl)carbamoyl)-3,8-diazabicyclo [3.2.1]octane-2-carboxylic acid] gave an IC50 of 61.3 nM.

In turn, `O=C(O)[C@@H]1[C@H]2CC[C@@H](CN1C(=O)N(c1ccccc1)c1ccccc1)N2C(=O)N(Cc1ccsc1)CC1CC1` [Compound C205, (1R,2S,5S)-8-((cyclopropylmethyl) (thiophene-3-ylmethyl)carbamoyl)-3-(diphenylcarbamoyl)-3,8-diazabicyclo [3.2.1]octane-2-carboxylic acid] had an IC50 of 42.8 nM. The IC50 values of the last two compounds are within 1.5-fold of each other.

Consider `O=C(O)[C@@H]1[C@@H]2CC[C@@H](CC2Oc2ccc([N+](=O)[O-])cc2)N1C(=O)C(c1ccccc1)c1ccccc1` (stereo partly drawn) [Compound C290, (1S,3S,4S)-2-(2,2-diphenyl-acetyl)-5-(4-nitrophenoxy)-2-azabicyclo [2.2.2]octane-3-carboxylic acid], for which the IC50 was 561 nM. Compared with the last compound, the IC50 is about 13-fold higher.

Consider `O=C(O)[C@@H]1[C@H]2CC[C@@H](CN1C(=O)N(c1ccccc1)c1ccccc1)N2C(=O)N(Cc1ccccc1)Cc1ccccc1` [Compound C133, (1R,2S,5S)-8-(dibenzylcarbamoyl)-3-(diphenylcarbamoyl)-3,8-diazabicyclo[3.2.1] octane-2-carboxylic acid], for which the IC50 worked out at 243 nM.

The compound `CC(CC(=O)N1[C@H]2CC[C@@H]1[C@@H](C(=O)O)N(C(=O)C(c1ccccc1)c1ccccc1)C2)c1ccccc1` (stereo partly drawn) [Compound C223, (1R,2S,5S)-3-(2,2-diphenylacetyl)-8-(3-phenylbutyryl)-3,8-diazabicyclo [3.2.1]octane-2-carboxylic acid] gave an IC50 of 7.87 nM.

Regarding `O=C(O)[C@@H]1[C@H]2CC[C@@H](CN1C(=O)C(c1ccccc1)c1ccccc1)N2C(=O)C(c1ccccc1)c1ccccc1` [Compound C3, (1R,2S,5S)-3,8-bis (2,2-diphenylacetyl)-3,8-diazabicyclo [3.2.1]octane-2-carboxylic acid], the IC50 was 13.9 nM.

In the case of `CN(Cc1ccc(Br)cc1)C(=O)N1[C@H]2CC[C@@H]1[C@@H](C(=O)O)N(C(=O)N(c1ccccc1)c1ccccc1)C2` [Compound C165, (1R,2S,5S)-8-((4-bromobenzyl) (methyl)carbamoyl)-3-(diphenylcarbamoyl)-3,8-diazabicyclo [3.2.1]octane-2-carboxylic acid], the IC50 stood at 14 nM.

With `O=C(O)[C@@H]1[C@H]2CC[C@@H](CN1C(=O)N(c1ccccc1)c1ccccc1)N2C(=O)N1CCN(c2ccccc2)CC1` [Compound C132, (1R,2S,5S)-3-(diphenylcarbamoyl)-8-(4-phenylpiperazine-1-carbonyl)-3,8-diazabicyclo[3.2.1] octane-2-carboxylic acid], the IC50 came to 482 nM.

As for `CCN(Cc1cc(C)cs1)C(=O)N1[C@H]2CC[C@@H]1[C@@H](C(=O)O)N(C(=O)N(c1ccccc1)c1ccccc1)C2` [Compound C273, (1R,2S,5S)-3-(diphenylcarbamoyl)-8-(ethyl((4-methylthiophen-2-yl)methyl)carbamoyl)-3,8-diazabicyclo [3.2.1]octane-2-carboxylic acid], the IC50 stood at 20.9 nM.

Consider `O=C(O)[C@H]1[C@@H]2CC[C@H](CN1C(=O)OCc1ccccc1)N2C(=O)C(c1ccccc1)c1ccccc1` [Compound C75, (1S,2R,5R)-3-((benzyloxy)carbonyl)-8-(2,2-diphenylacetyl)-3,8-diazabicyclo[3. 2.1]octane-2-carboxylic acid], for which the IC50 stood at 54 nM.

In the case of `CN(Cc1cc2ccccc2s1)C(=O)N1[C@H]2CC[C@@H]1[C@@H](C(=O)O)N(C(=O)N(c1ccccc1)c1ccccc1)C2` [Compound C271], the IC50 was found to be 14.5 nM.

`O=C(O)[C@@H]1[C@H]2CC[C@@H](CN1C(=O)N(c1ccccc1)c1ccccc1)N2S(=O)(=O)c1ccccc1` [Compound C182, (1R,2S,5S)-3-(diphenylcarbamoyl)-8-(phenylsulfulyl)-3,8-diazabicyclo [3.2.l]octane-2-carboxylic acid] displayed a concentration for half-maximal inhibition (IC50) of 432 nM. Compared with the last compound, the IC50 is about 30-fold higher.

The compound `Cn1cc(-c2ccccc2C(=O)N2[C@H]3CC[C@@H]2[C@@H](C(=O)O)N(C(=O)N(c2ccccc2)c2ccccc2)C3)cn1` [Compound C241, (1R,2S,5S)-3-(diphenylcarbamoyl)-8-(2-(1-methyl-1H-pyrazole-4-yl)benzoyl)-3,8-diazabicyclo [3.2.1]octane-2-carboxylic acid] returned a 50% inhibitory concentration (IC50) of 156 nM.

Take `O=C(O)[C@@H]1[C@H]2CC[C@@H](CN1C(=O)N(c1ccccc1)c1ccccc1)N2C(=O)N(Cc1ccccc1)CC1CC1` [Compound C154, (1R,2S,5S)-8-(benzyl (cyclopropylmethyl)carbamoyl)-3-(diphenylcarbamoyl)-3,8-diazabicyclo [3.2.1]octane-2-carboxylic acid]: the IC50 is 19.8 nM.

`Cc1ccc(CN(C(=O)N2[C@H]3CC[C@@H]2[C@@H](C(=O)O)N(C(=O)N(c2ccccc2)c2ccccc2)C3)C2CC2)s1` [Compound C204] registered an IC50 of 4.93 nM.

Turning to `O=C(O)[C@@H]1[C@@H]2CC[C@@H](CC2OCc2ccccc2Cl)N1C(=O)C(c1ccccc1)c1ccccc1` (stereo partly drawn) [Compound C294, (1S,3S,4S)-5-((2-chloro-benzyl)oxy)-2-(2,2-diphenylacetyl)-2-azabicyclo [2.2.2]octane-3-carboxylic acid], the IC50 was determined as 666 nM.

Consider `CN(Cc1ccc(F)cc1)C(=O)N1[C@H]2CC[C@@H]1[C@@H](C(=O)O)N(C(=O)N(c1ccccc1)c1ccccc1)C2` [Compound C161, (1R,2S,5S)-3-(diphenylcarbamoyl)-8-((4-fluorobenzyl) (methyl)carbamoyl)-3,8-thazabicyclo [3.2.1]octane-2-carboxylic acid], for which the IC50 is 30.5 nM. Against the preceding compound, the IC50 is about 22-fold lower.

In turn, `CC1(N(Cc2ccsc2)C(=O)N2[C@H]3CC[C@@H]2[C@@H](C(=O)O)N(C(=O)N(c2ccccc2)c2ccccc2)C3)CC1` [Compound C198] returned an IC50 of 10.2 nM.

Consider `O=C(O)[C@@H]1[C@H]2CC[C@@H](CN1C(=O)N(c1ccccc1)c1ccccc1)N2C(=O)N(Cc1ccc(Cl)cc1)CC1CC1` [Compound C218, (1R,2S,5S)-8-((4-chlorobenzyl) (cyclopropylmethyl)carbamoyl)-3-(diphenylcarbamoyl)-3,8-diazabicyclo [3.2.1]octane-2-carboxylic acid], for which the IC50 is 11.5 nM.

For `CCN(Cc1ccc(C)s1)C(=O)N1[C@H]2CC[C@@H]1[C@@H](C(=O)O)N(C(=O)N(c1ccccc1)c1ccccc1)C2` [Compound C202, (1R,2S,5S)-3-(diphenylcarbamoyl)-8-(ethyl((5-methylthiophen-2-yl)methyl)carbamoyl)-3,8-diazabicyclo [3.2.1]octane-2-carboxylic acid], the IC50 was found to be 3.87 nM.

With `CN(Cc1ccccc1F)C(=O)N1[C@H]2CC[C@@H]1[C@@H](C(=O)O)N(C(=O)N(c1ccccc1)c1ccccc1)C2` [Compound C114, (1R,2S,5S)-3-(diphenylcarbamoyl)-8-((2-fluorobenzyl) (methyl)carbamoyl)-3,8-diazabicyclo [3.2.1]octane-2-carboxylic acid], the IC50 was 26.4 nM.
